Source: patent publication EP0973746B1, “SUBSTITUTED 3-CYANO QUINOLINES” (Wyeth Holdings Corporation, priority 1997, dated 1998)
pIC50: −log10 of the molar value. In brackets after ≈: the same amount, converted by molar mass. Read-outs that look alike come from different tables or passages of the source.

Experiments:
A431 [1] = test: Inhibition of cell growth by incorporation of [3H]-thymidine, A431; type: cell-based, human; details: Homo sapiens, A-431, read-out: IC50 A431
Protocol: Representative compounds of this invention were evaluated for their ability to inhibit the growth of the cell lines described below in vitro. The inhibition is quantitated by measuring the decrease in the incorporation of radio-labeled thymidine when the cells are grown in the presence of the inhibitor. […] Cells were routinely grown in a humidified incubator in 5% CO2 in air.
Cells were seeded at 10,000 cells/well in 96 well plates in complete media and allowed to grow to log phase. At this stage the complete media was replaced with media containing 0.5% FBS (for cells growing in 10% FBS) or media lacking epidermal growth factor (EGF) (for cells growing in serum free media). […] Media with test compound was then removed and complete media was added back. The cells were allowed to grow for 18 hours. This is followed by incubation in [^3H]thymidine (1mCi/ml in serum/EGF media) for 4 hours. Cells were lysed in 0.5 M NaOH for at least 30 min at 37°C and radioactivity analyzed.
The % inhibition of the compound evaluated was determined for at least three different concentrations and the IC50 value evaluated from the dose response curve. […] CPM(control) is in units of counts per minute and is a number expressing the amount of [^3H]thymidine incorporated onto the DNA when cells are grown in the absence of test compound as measured by liquid scintillation counting.

HTB161 = test: Inhibition of cancer cell growth as measured by cell number, HTB161; type: cell-based; details: Homo sapiens, read-out: IC50 HTB161
A27805 = test: Inhibition of cancer cell growth as measured by cell number, A27805; type: cell-based; details: Homo sapiens, read-out: IC50 A27805
A2780DDP = test: Inhibition of cancer cell growth as measured by cell number, A2780DDP; type: cell-based; details: Homo sapiens, read-out: IC50 A2780DDP
MIP = test: Inhibition of cancer cell growth as measured by cell number, MIP; type: cell-based; details: Homo sapiens; cell number, Sulforhodamine B, 48 hours exposure; Table 4; read-out: IC50 MIP
SW620 = test: Inhibition of cancer cell growth as measured by cell number, SW620; type: cell-based, human; details: Homo sapiens, SW-620, 48 h, Table 4;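 note: SW620 was included as a cell line with little or no EGFR or HER2/neu expression, in contrast to receptor-overexpressing lines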
Description: (§1) The cell lines were chosen since they overexpressed epidermal growth factor receptor (EGFR) (i.e. A431) or HER2/neu (SKBR3), or had little to no expression of the these receptors (SW620, LOX, MCF7).

CX1 = test: Inhibition of cancer cell growth as measured by cell number, CX1; type: cell-based; details: Homo sapiens, read-out: IC50 CX1
CACO2 = test: Inhibition of cancer cell growth as measured by cell number, CACO2; type: cell-based; details: Homo sapiens, read-out: IC50 CACO2
HCT15 = test: Inhibition of cancer cell growth as measured by cell number, HCT15; type: cell-based; details: Homo sapiens, read-out: IC50 HCT15
LS174T = test: Inhibition of cancer cell growth as measured by cell number, LS174T; type: cell-based; details: Homo sapiens
SW948 = test: Inhibition of cancer cell growth as measured by cell number, SW948; type: cell-based; details: Homo sapiens, read-out: IC50 SW948
CCL228 = test: Inhibition of cancer cell growth as measured by cell number, CCL228; type: cell-based; details: Homo sapiens, read-out: IC50 CCL228
B7474 = test: Inhibition of cancer cell growth as measured by cell number, B7474; type: cell-based; details: Homo sapiens, read-out: IC50 B7474
T47D = test: Inhibition of cancer cell growth as measured by cell number, T47D; type: cell-based; details: Homo sapiens
LX1 = test: Inhibition of cancer cell growth as measured by cell number, LX1; type: cell-based; details: Homo sapiens, read-out: IC50 LX1
A549 = test: Inhibition of cancer cell growth as measured by cell number, A549; type: cell-based; details: Homo sapiens, read-out: IC50 A549
LOX = test: Inhibition of cancer cell growth as measured by cell number, LOX; type: cell-based, human; details: Homo sapiens, LOX, 48 h, Table 6;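 note: LOX cells served as a line with low or absent EGFR and HER2/neu expression, in contrast to receptor-overexpressing lines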
Description: as §1

A431 [2] = test: Inhibition of cancer cell growth as measured by cell number, A431; type: cell-based, human; details: Homo sapiens, A-431, 48 h, Table 6;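 note: human A431 line, picked because it overexpresses epidermal growth factor receptor (EGFR)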
Description: as §1

DU145 = test: Inhibition of cancer cell growth as measured by cell number, DU145; type: cell-based; details: Homo sapiens, read-out: IC50 DU145
PC3 = test: Inhibition of cancer cell growth as measured by cell number, PC3; type: cell-based; details: Homo sapiens, read-out: IC50 PC3
HL60 = test: Inhibition of cancer cell growth as measured by cell number, HL60; type: cell-based; details: Homo sapiens, read-out: IC50 HL60
CCRF-CFM = test: Inhibition of cancer cell growth as measured by cell number, CCRF-CFM; type: cell-based; details: Homo sapiens, read-out: IC50 CCRF-CFM
[3] = target: epidermal growth factor receptor kinase (Homo sapiens, UniProt P00533); test: biochemical
Sequence of epidermal growth factor receptor kinase (P00533 25-1210): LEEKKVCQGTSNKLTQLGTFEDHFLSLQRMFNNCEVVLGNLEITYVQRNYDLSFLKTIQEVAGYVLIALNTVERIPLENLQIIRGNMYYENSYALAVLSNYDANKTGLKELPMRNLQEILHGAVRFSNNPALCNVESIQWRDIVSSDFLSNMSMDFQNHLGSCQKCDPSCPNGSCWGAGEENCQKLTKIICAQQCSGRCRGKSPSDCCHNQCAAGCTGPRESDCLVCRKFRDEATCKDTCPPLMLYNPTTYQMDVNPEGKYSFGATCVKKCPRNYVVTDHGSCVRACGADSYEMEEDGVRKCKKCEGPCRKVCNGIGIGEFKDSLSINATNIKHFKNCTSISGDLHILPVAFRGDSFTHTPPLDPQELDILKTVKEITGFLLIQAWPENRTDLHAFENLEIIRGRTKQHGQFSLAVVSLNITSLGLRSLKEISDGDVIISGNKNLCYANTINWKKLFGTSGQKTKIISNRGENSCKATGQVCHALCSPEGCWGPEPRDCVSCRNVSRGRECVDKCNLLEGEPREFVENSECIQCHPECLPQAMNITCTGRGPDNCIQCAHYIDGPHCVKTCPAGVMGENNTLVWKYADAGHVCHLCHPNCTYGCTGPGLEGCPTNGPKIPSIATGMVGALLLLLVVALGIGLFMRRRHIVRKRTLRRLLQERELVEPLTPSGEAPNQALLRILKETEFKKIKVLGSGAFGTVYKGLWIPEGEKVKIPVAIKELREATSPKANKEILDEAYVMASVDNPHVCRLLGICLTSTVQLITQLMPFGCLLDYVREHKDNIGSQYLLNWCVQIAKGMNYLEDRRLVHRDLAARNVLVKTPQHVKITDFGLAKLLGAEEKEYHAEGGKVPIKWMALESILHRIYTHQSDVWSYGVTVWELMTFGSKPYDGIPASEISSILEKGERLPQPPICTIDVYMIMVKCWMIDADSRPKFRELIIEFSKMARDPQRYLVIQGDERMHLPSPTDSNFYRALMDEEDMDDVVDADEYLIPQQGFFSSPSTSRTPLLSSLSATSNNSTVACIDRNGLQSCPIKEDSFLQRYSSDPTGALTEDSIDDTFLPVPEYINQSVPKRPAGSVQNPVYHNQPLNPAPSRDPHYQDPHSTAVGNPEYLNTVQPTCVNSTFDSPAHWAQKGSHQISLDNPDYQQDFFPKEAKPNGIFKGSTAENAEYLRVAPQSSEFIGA

COLO205 = test: Inhibition of cancer cell growth as measured by cell number, COLO205; type: cell-based; details: Homo sapiens, read-out: IC50 COLO205
MCF7 = test: Inhibition of cancer cell growth as measured by cell number, MCF7; type: cell-based, human; details: Homo sapiens, MCF7, 48 h, Table 5;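 note: MCF7 was included as a line with little or no EGFR or HER2/neu expression, in contrast to the receptor-overexpressing lines of the panel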
Description: as §1

NEC = test: Inhibition of cancer cell growth as measured by cell number, NEC; type: cell-based; details: Homo sapiens, read-out: IC50 NEC
LNCAP = test: Inhibition of cancer cell growth as measured by cell number, LNCAP; type: cell-based; details: Homo sapiens
SKBR3 = test: Inhibition of cancer cell growth as measured by cell number, SKBR3; type: cell-based, human; details: Homo sapiens, Table 7;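 note: SK-BR-3 cells were selected as a line overexpressing HER2/neu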
Description: as §1

[4] = target: T1, Kinase insert Domain containing Receptor (KDR: the catalytic domain of the VEGF receptor) (Homo sapiens, UniProt P35968); test: Inhibition of Kinase insert Domain containing Receptor (KDR); type: biochemical; details: pH 7.2; radioactive format; read-out: KDR IC50 (converted);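 note: KDR phosphorylating a Glu:Tyr 4:1 copolymer with P32- or P33-labelled ATP, Mg++ and vanadate, read as acid-insoluble radiolabel, compared with compound-free reaction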
T1 construct: KDR: the catalytic domain of the VEGF receptor
T1 sequence (P35968 834-1162 limits assumed): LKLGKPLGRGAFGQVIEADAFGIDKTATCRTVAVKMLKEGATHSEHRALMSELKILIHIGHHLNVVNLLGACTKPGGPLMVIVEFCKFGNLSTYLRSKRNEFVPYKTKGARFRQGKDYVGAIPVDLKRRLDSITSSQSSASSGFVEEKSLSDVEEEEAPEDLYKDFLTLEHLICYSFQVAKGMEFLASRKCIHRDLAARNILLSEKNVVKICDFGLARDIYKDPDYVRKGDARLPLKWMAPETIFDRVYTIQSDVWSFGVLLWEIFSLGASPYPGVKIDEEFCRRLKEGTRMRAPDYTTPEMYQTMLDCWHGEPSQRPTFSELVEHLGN

[5] = target: recombinant human MEK 1 (MAPKK) and recombinant human ERK2 (MAPK); test: Mitogen Activated Protein Kinase (MAPK) assay, two component coupled MEK 1 / ERK2; type: biochemical; details: separate entries for the same compound = evaluated more than one time;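 note: MEK 1-activated ERK2 phosphorylates MBP or Myc peptide with 33P-ATP, filter capture and scintillation counting, inhibitor preincubated with ERK2 30 min at 0 °C, inhibition relative to uninhibited control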
[6] = read-out: IC50 SW620, cell number, Sulforhodamine B, 48 hours exposure
[7] = read-out: IC50 LOX, cell number, Sulforhodamine B, 48 hours exposure
[8] = read-out: IC50 A431, cell number, Sulforhodamine B, 48 hours exposure
[9] = cell number, Sulforhodamine B, 48 hours exposure, Table 4
[10] = cell number, Sulforhodamine B, 48 hours exposure, Table 6

COc1cc2ncc(C#N)c(Nc3ccc(F)cc3)c2cc1OC [Example 46, 4-((4-Fluorophenyl)amino]-6,7-dimethoxy-3-quinolinecarbonitrile] showed a pIC50 (A431 [1]) of 6.00, an IC50 (HTB161; 48 h) of 9.59 mg/L (≈ 29.6 µM) and an IC50 (A27805; 48 h) of 7.41 mg/L (≈ 22.9 µM). For the same molecule, the IC50 (A2780DDP; 48 h) was 5.86 mg/L (≈ 18.1 µM), the IC50 (MIP) was 5.6 mg/L (≈ 17.3 µM) and the IC50 (SW620; [6]) was greater than 100 mg/L. For the same molecule, the IC50 (CX1; CX-1, 48 h) was 9.7 mg/L (≈ 30 µM), the IC50 (CACO2; Caco-2, 48 h) was 6.03 mg/L (≈ 18.6 µM) and the IC50 (HCT15; HCT-15, 48 h) was 5.6 mg/L (≈ 17.3 µM). For the same molecule, the IC50 (LS174T; 48 h, read-out: IC50 LS174T) was 7.13 mg/L (≈ 22 µM), the IC50 (SW948; SW948, 48 h) was greater than 100 mg/L and the IC50 (CCL228; 48 h) was 54 mg/L (≈ 167 µM). The IC50 (B7474; 48 h) was 32.9 mg/L (≈ 102 µM), the IC50 (T47D; 48 h, read-out: IC50 T47D) was greater than 100 mg/L and the IC50 (LX1; LX-1, 48 h) was 34 mg/L (≈ 105 µM). The IC50 (A549; A549, 48 h) was 4.85 mg/L (≈ 15 µM), the IC50 (LOX; [7]) was 5.35 mg/L (≈ 16.5 µM) and the IC50 (A431 [2]; [8]) was 8.01 mg/L (≈ 24.8 µM). The IC50 (DU145; DU-145, 48 h) was 3.63 mg/L (≈ 11.2 µM), the IC50 (PC3; PC-3, 48 h) was greater than 100 mg/L and the IC50 (HL60; HL-60, 48 h) was 6.02 mg/L (≈ 18.6 µM). For the same molecule, the IC50 (CCRF-CFM; 48 h) was 61.7 mg/L (≈ 191 µM) and the pIC50 [3] was 5.05.

For COc1cc2ncc(C#N)c(Oc3cccc(Br)c3)c2cc1OC [Example 49, 4-(3-Bromophenoxy)-6,7-dimethoxy-3-quinolinecarbonitrile], the IC50 (HTB161; 48 h) was 70.6 mg/L (≈ 183 µM), the IC50 (A27805; 48 h) was 34.8 mg/L (≈ 90.2 µM) and the IC50 (A2780DDP; 48 h) was 51.8 mg/L (≈ 135 µM). The IC50 (MIP) was greater than 100 mg/L, the IC50 (SW620; [6]) was greater than 100 mg/L and the IC50 (COLO205; COLO 205, 48 h) was 88 mg/L (≈ 228 µM). For the same molecule, the IC50 (CX1; CX-1, 48 h) was 98.4 mg/L (≈ 256 µM), the IC50 (CACO2; Caco-2, 48 h) was 42.1 mg/L (≈ 109 µM) and the IC50 (HCT15; HCT-15, 48 h) was 97.4 mg/L (≈ 253 µM). It also gave an IC50 (LS174T; 48 h, read-out: IC50 LS174T) greater than 100 mg/L, an IC50 (SW948; SW948, 48 h) greater than 100 mg/L and an IC50 (CCL228; 48 h) of 99 mg/L (≈ 257 µM). It also gave an IC50 (MCF7; read-out: IC50 MCF7, cell number, Sulforhodamine B, 48 hours exposure) of 57.5 mg/L (≈ 149 µM), an IC50 (B7474; 48 h) of 87.1 mg/L (≈ 226 µM) and an IC50 (T47D; 48 h, read-out: IC50 T47D) of 71.2 mg/L (≈ 185 µM). The IC50 (LX1; LX-1, 48 h) was greater than 100 mg/L, the IC50 (A549; A549, 48 h) was greater than 100 mg/L and the IC50 (LOX; [7]) was 55.1 mg/L (≈ 143 µM). The IC50 (A431 [2]; [8]) was 100 mg/L (≈ 260 µM), the IC50 (NEC; 48 h) was 85.3 mg/L (≈ 221 µM) and the IC50 (DU145; DU-145, 48 h) was 79.8 mg/L (≈ 207 µM). The IC50 (PC3; PC-3, 48 h) was greater than 100 mg/L, the IC50 (LNCAP; 48 h, read-out: IC50 LNCAP) was 52.4 mg/L (≈ 136 µM) and the IC50 (HL60; HL-60, 48 h) was 48.4 mg/L (≈ 126 µM). For the same molecule, the IC50 (CCRF-CFM; 48 h) was greater than 100 mg/L, the IC50 (SKBR3; SK-BR-3, 48 h, read-out: IC50 SKBR3, cell number, Sulforhodamine B, 48 hours exposure) was 74.6 mg/L (≈ 194 µM) and the IC50 [4] was greater than 77.9 µM. For the same molecule, the pIC50 [5] was less than 4.00.

COc1cc2ncc(C#N)c(Sc3ccc(Br)cc3)c2cc1OC [Example 50, 4-[(4-Bromophenyl)sulfanyl]-6,7-dimethoxy-3-quinolinecarbonitrile] showed an IC50 (HTB161; [9]) of 4.46 mg/L (≈ 11.1 µM), an IC50 (A27805; [9]) of 4.68 mg/L (≈ 11.7 µM) and an IC50 (A2780DDP; [9]) of 6.42 mg/L (≈ 16 µM). For the same molecule, the IC50 (MIP) was 7.35 mg/L (≈ 18.3 µM), the IC50 (SW620; cell number, Sulforhodamine B, 48 hours exposure, read-out: IC50 SW620) was 32.9 mg/L (≈ 81.9 µM) and the IC50 (COLO205; COLO 205, cell number, Sulforhodamine B, 48 hours exposure, Table 4) was 28.5 mg/L (≈ 70.9 µM). For the same molecule, the IC50 (CX1; CX-1, cell number, Sulforhodamine B, 48 hours exposure, Table 4) was 8.72 mg/L (≈ 21.7 µM), the IC50 (CACO2; Caco-2, cell number, Sulforhodamine B, 48 hours exposure, Table 5) was 4.89 mg/L (≈ 12.2 µM) and the IC50 (HCT15; HCT-15, cell number, Sulforhodamine B, 48 hours exposure, Table 5) was 8.54 mg/L (≈ 21.3 µM). For the same molecule, the IC50 (LS174T; cell number, Sulforhodamine B, 48 hours exposure, Table 5, read-out: IC50 LS174T) was 7.68 mg/L (≈ 19.1 µM), the IC50 (SW948; SW948, cell number, Sulforhodamine B, 48 hours exposure, Table 5) was 17.9 mg/L (≈ 44.6 µM) and the IC50 (CCL228; cell number, Sulforhodamine B, 48 hours exposure, Table 5) was 6.79 mg/L (≈ 16.9 µM). The IC50 (MCF7; cell number, Sulforhodamine B, 48 hours exposure, read-out: IC50 MCF7) was 7.14 mg/L (≈ 17.8 µM), the IC50 (B7474; [10]) was 7.17 mg/L (≈ 17.9 µM) and the IC50 (T47D; cell number, Sulforhodamine B, 48 hours exposure, Table 6, read-out: IC50 T47D) was 5.42 mg/L (≈ 13.5 µM). The IC50 (LX1; LX-1, cell number, Sulforhodamine B, 48 hours exposure, Table 6) was 7.21 mg/L (≈ 18 µM), the IC50 (A549; A549, cell number, Sulforhodamine B, 48 hours exposure, Table 6) was 6.82 mg/L (≈ 17 µM) and the IC50 (LOX; cell number, Sulforhodamine B, 48 hours exposure, read-out: IC50 LOX) was 4.7 mg/L (≈ 11.7 µM). For the same molecule, the IC50 (A431 [2]; cell number, Sulforhodamine B, 48 hours exposure, read-out: IC50 A431) was 7.35 mg/L (≈ 18.3 µM), the IC50 (NEC; [10]) was 6.89 mg/L (≈ 17.2 µM) and the IC50 (DU145; DU-145, cell number, Sulforhodamine B, 48 hours exposure, Table 7) was 5.6 mg/L (≈ 14 µM). The IC50 (PC3; PC-3, cell number, Sulforhodamine B, 48 hours exposure, Table 7) was 8.53 mg/L (≈ 21.2 µM), the IC50 (LNCAP; cell number, Sulforhodamine B, 48 hours exposure, Table 7, read-out: IC50 LNCAP) was 5.34 mg/L (≈ 13.3 µM) and the IC50 (HL60; HL-60, cell number, Sulforhodamine B, 48 hours exposure, Table 7) was 4.72 mg/L (≈ 11.8 µM). For the same molecule, the IC50 (CCRF-CFM; cell number, Sulforhodamine B, 48 hours exposure, Table 7) was 4.6 mg/L (≈ 11.5 µM), the IC50 (SKBR3; SK-BR-3, cell number, Sulforhodamine B, 48 hours exposure, read-out: IC50 SKBR3) was 6.83 mg/L (≈ 17 µM) and the pIC50 [5] was less than 4.00. It also gave a pIC50 [3] of 5.30.
